Assay [1] relates to RS4;11 (BCL-2 dependent acute lymphoblastic leukemia cell line). As to the kind of experiment: RS4;11 Cell Proliferation Assay. In kind it is cell-based. The conditions noted are these: Homo sapiens, RS4-11, RS4;11 cells, read-out: Cellular proliferation assay (IC50, nM) RS4. The method in brief: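 RS4;11 cells, 50,000 per well in RPMI-1640 with 10% FBS, treated 48 h at 37 °C with a 10-point dilution series topping at 1 μM. Viability read by CellTiter-Glo ATP luminescence; mean IC50 reported.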

For assay [2], the target named is Recombinant human Bcl-2 protein (Homo sapiens (Human), UniProt P10415). As to the kind of experiment: Bcl-2 TR-FRET Assay. It is filed as binding. The method in brief: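 0.05 nM recombinant Bcl-2 preincubated 0.5 h at room temperature with 10-point compound dilutions (top final 1, 0.1, 0.02 or 0.01 uM) in pH 7.5 phosphate buffer. FITC-Bak peptide (0.5 nM) and anti-6His Tb cryptate then added for 1 h. TR-FRET read; IC50 from four-parameter logistic fit.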
On the technique in general: TR-FRET usually uses a lanthanide donor and a delayed reading to cut background.

In assay [3] the target is recombinant human Bcl-2 D103Y protein (Homo sapiens (Human), UniProt P10415, D103Y). The experiment in a line: Bcl-2-D103Y Biochemical Assay (TR-FRET). In kind it is binding. The following applies: for IC50: TR-FRET, FITC labeled Bak peptide; for Ratio of Bcl-2 D103Y/Bcl-2 WT: ratio of IC50. In a few lines: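 Recombinant human Bcl-2 D103Y binding to its ligand measured by TR-FRET (ex 337 nm, em 490/520 nm) with increasing compound concentrations. Percent inhibition from the 490/520 nm ratio; IC50 from four-parameter logistic fit.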

Assay [4] relates to BCL-2 G101V knock-in cell line H96 (derive from RS4;11). As to the kind of experiment: Bcl 2-G101V Knock-In RS4;11 Cell Proliferation Assay. The following applies: Homo sapiens, RS4;11 Bcl-2 G101V knock-in clone H96, 48 hrs, CellTiter-GLO, read-out: Cellular proliferation assay (IC50, nM) RS4. It is filed as cell-based. The method in brief:
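H96, a CRISPR-generated RS4;11 clone carrying BCL2-G101V knock-in (WES/RNA-seq validated), seeded 50,000 per well and exposed 48 h at 37 °C to 10-point dilutions topping at 1 or 10 μM. Viability by CellTiter-Glo luminescence; mean IC50.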
A general note: Cellular ATP, detected with luciferase, serves as a proxy for viable cell number.

Assay [5] concerns recombinant human Bcl-2-G101V protein. The experiment in a line: Bcl-2-G101V TR-FRET Assay. In kind it is binding. The following applies: ratio of biochemical IC50 Bcl-2 G101V / Bcl-2 WT. In a few lines:
(§1)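 IC50 values derive from four-parameter logistic fitting of percent inhibition data. That inhibition of ligand binding to Bcl-2-G101V is computed from the 490 nm/520 nm TR-FRET ratio under 337 nm excitation, over a rising compound concentration series.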

Assay [6] has as its target recombinant human Bcl-2-G101V protein (Homo sapiens (Human), UniProt P10415, G101V). The experiment in a line: Bcl-2-G101V TR-FRET Assay. It is filed as binding. The conditions noted are these: Bcl-2 G101V mutant, TR-FRET; read-out: Biochemical assay (IC50, nM) Bcl-2 G101V. In a few lines: as §1
[7] abbreviates: Bcl-2 wild type, TR-FRET, read-out: Biochemical assay (IC50, nM) Bcl-2 WT.
The mark [8] stands for this setting: wild type Bcl-2, unit inferred, read-out: Bcl-2 WT.

The results in this text go back to US20240376097A1, “BCL-2 Inhibitor” (BeiGene Ltd., priority 2020, published 2024).

Like-named read-outs stand apart in the source and are kept apart here.

On to `CC(C)c1ccccc1C1CN(Cc2ccccc2)CCN1C1CC2(CCN(c3ccc(C(=O)NS(=O)(=O)c4ccc(NCC5(F)CCOCC5)c([N+](=O)[O-])c4)c(Oc4cnc5[nH]ccc5c4)c3)CC2)C1` (stereo not shown) [Example 27, 2-((1H-pyrrolo[2,3-b]pyridin-5-yl)oxy)-4-(2-(4-benzyl-2-(2-isopropylphenyl)piperazin-1-yl)-7-azaspiro[3.5]nonan-7-yl)-N-((4-(((4-fluorotetrahydro-2H-pyran-4-yl)methyl)amino)-3-nitrophenyl)sulfonyl)benzamide], for which the IC50 in assay [1] is 1.05 nM; in assay [2] (setting [7]), 0.27 nM; in assay [2] (setting [8]), 0.27 nM; in assay [3] it was 0.49 nM; in assay [4] it was 7.77 nM; in assay [6] it was 2.7 nM. Moreover, in assay [3], the “Ratio of Bcl-2 D103Y/Bcl-2 WT” value was 1.8. Besides, the “Ratio of Bcl-2 G101V/WT” value in assay [5] was 10.0.
As to `Cc1ccc(CN2CCN(C3CC4(CCN(c5ccc(C(=O)NS(=O)(=O)c6ccc(NC[C@H]7CC[C@](C)(O)CC7)c([N+](=O)[O-])c6)c(Oc6cnc7[nH]ccc7c6)c5)CC4)C3)C(c3ccccc3C(C)C)C2)cc1` (stereo partly shown) [Example 30, 2-((1H-pyrrolo[2,3-b]pyridin-5-yl)oxy)-N-((4-((((1r,4r)-4-hydroxy-4-methylcyclohexyl)methyl)amino)-3-nitrophenyl)sulfonyl)-4-(2-(2-(2-isopropylphenyl)-4-(4-methylbenzyl)piperazin-1-yl)-7-azaspiro[3.5]nonan-7-yl) benzamide], the IC50 in assay [1] came to 0.53 nM; in assay [2] (setting [7]), 0.27 nM; in assay [2] (setting [8]) it was 0.27 nM; in assay [3], 0.42 nM; in assay [4], 3.48 nM; in assay [6] it was 1.1 nM. Moreover, the “Ratio of Bcl-2 D103Y/Bcl-2 WT” value in assay [3] was found to be 1.6. The “Ratio of Bcl-2 G101V/WT” value in assay [5] came to 4.1.
As for `CCOc1ccc(CN2CCN(C3CC4(CCN(c5ccc(C(=O)NS(=O)(=O)c6ccc(NC[C@H]7CC[C@](C)(O)CC7)c([N+](=O)[O-])c6)c(Oc6cnc7[nH]ccc7c6)c5)CC4)C3)C(c3ccccc3C(C)C)C2)cc1` (stereo partly shown) [Example 40, 2-((1H-pyrrolo[2,3-b]pyridin-5-yl)oxy)-4-(2-(4-(4-ethoxybenzyl)-2-(2-isopropylphenyl)piperazin-1-yl)-7-azaspiro[3.5]nonan-7-yl)-N-((4-((((1r,4r)-4-hydroxy-4-methylcyclohexyl)methyl)amino)-3-nitrophenyl)sulfonyl)benzamide], the IC50 in assay [1] was 0.85 nM; in assay [2] (setting [7]), 0.19 nM; in assay [2] (setting [8]), 0.19 nM; in assay [3], 0.72 nM; in assay [4], 8.4 nM; in assay [6], 1.3 nM. Besides, in assay [3], the “Ratio of Bcl-2 D103Y/Bcl-2 WT” value amounted to 3.8. The “Ratio of Bcl-2 G101V/WT” value in assay [5] was determined as 6.8.
As for `CC(C)c1ccccc1C1CN(Cc2ccc(C#N)cc2)CCN1C1CC2(CCN(c3ccc(C(=O)NS(=O)(=O)c4ccc(NC[C@H]5CC[C@](C)(O)CC5)c([N+](=O)[O-])c4)c(Oc4cnc5[nH]ccc5c4)c3)CC2)C1` (stereo partly shown) [Example 42, 2-((1H-pyrrolo[2,3-b]pyridin-5-yl)oxy)-4-(2-(4-(4-cyanobenzyl)-2-(2-isopropylphenyl)piperazin-1-yl)-7-azaspiro[3.5]nonan-7-yl)-N-((4-((((1r,4r)-4-hydroxy-4-methylcyclohexyl)methyl)amino)-3-nitrophenyl)sulfonyl)benzamide], the IC50 in assay [1] is 1.8 nM; in assay [2] (setting [7]), 0.41 nM; in assay [2] (setting [8]) it was 0.41 nM; in assay [3], 1.7 nM; in assay [4] it was 13.5 nM; in assay [6], 2.5 nM. In addition, the “Ratio of Bcl-2 D103Y/Bcl-2 WT” value in assay [3] is on record as 4.1. For the same compound, in assay [5], the “Ratio of Bcl-2 G101V/WT” value is listed as 6.1.
On to `COc1cccc(CN2CCN(C3CC4(CCN(c5ccc(C(=O)NS(=O)(=O)c6cc7c(c([N+](=O)[O-])c6)N[C@H](C[C@H]6CC[C@H](O)CC6)CO7)c(Oc6cnc7[nH]ccc7c6)c5)CC4)C3)C(c3ccccc3C(C)C)C2)c1` (stereo partly shown) [Example 45], for which the IC50 in assay [1] is 0.41 nM; in assay [2] (setting [7]), 0.24 nM; in assay [2] (setting [8]) it was 0.24 nM; in assay [3], 0.54 nM; in assay [4], 3.29 nM; in assay [6], 0.95 nM. Besides, the “Ratio of Bcl-2 D103Y/Bcl-2 WT” value in assay [3] was 2.3. The “Ratio of Bcl-2 G101V/WT” value in assay [5] came out at 4.0.
`COc1ccccc1CN1CCN(C2CC3(CCN(c4ccc(C(=O)NS(=O)(=O)c5ccc(NC[C@H]6CC[C@](C)(O)CC6)c([N+](=O)[O-])c5)c(Oc5cnc6[nH]ccc6c5)c4)CC3)C2)C(c2ccccc2C(C)C)C1` (stereo partly shown) [Example 47, 2-((1H-pyrrolo[2,3-b]pyridin-5-yl)oxy)-N-((4-((((1r,4r)-4-hydroxy-4-methylcyclohexyl)methyl)amino)-3-nitrophenyl)sulfonyl)-4-(2-(2-(2-isopropylphenyl)-4-(2-methoxybenzyl)piperazin-1-yl)-7-azaspiro[3.5]nonan-7-yl) benzamide]: the IC50 stood at 1 nM in assay [1]; 0.12 nM in assay [2] (setting [7]); 0.12 nM in assay [2] (setting [8]); 0.4 nM in assay [3]; 5.33 nM in assay [4]; 0.53 nM in assay [6]. Moreover, in assay [3], the “Ratio of Bcl-2 D103Y/Bcl-2 WT” value came to 3.3. The “Ratio of Bcl-2 G101V/WT” value in assay [5] worked out at 4.4.
As to `CC(C)c1ccccc1C1CN(Cc2ccc(F)cc2F)CCN1C1CC2(CCN(c3ccc(C(=O)NS(=O)(=O)c4ccc(NC[C@H]5CC[C@](C)(O)CC5)c([N+](=O)[O-])c4)c(Oc4cnc5[nH]ccc5c4)c3)CC2)C1` (stereo partly shown) [Example 50], the IC50 in assay [1] stood at 0.8 nM; in assay [2] (setting [7]), 0.18 nM; in assay [2] (setting [8]), 0.18 nM; in assay [3] it was 1.2 nM; in assay [4], 7.9 nM; in assay [6] it was 1.2 nM. Also, the “Ratio of Bcl-2 D103Y/Bcl-2 WT” value in assay [3] was found to be 6.6. For the same compound, the “Ratio of Bcl-2 G101V/WT” value in assay [5] came out at 6.7.
On to `CC(C)c1ccccc1C1CN(Cc2ccc3c(c2)CCCO3)CCN1C1CC2(CCN(c3ccc(C(=O)NS(=O)(=O)c4ccc(NC[C@H]5CC[C@](C)(O)CC5)c([N+](=O)[O-])c4)c(Oc4cnc5[nH]ccc5c4)c3)CC2)C1` (stereo partly shown) [Example 53, 2-((1H-pyrrolo[2,3-b]pyridin-5-yl)oxy)-4-(2-(4-(chroman-6-ylmethyl)-2-(2-isopropylphenyl)piperazin-1-yl)-7-azaspiro[3.5]nonan-7-yl)-N-((4-((((1r,4r)-4-hydroxy-4-methylcyclohexyl)methyl)amino)-3-nitrophenyl)sulfonyl)benzamide], for which the IC50 in assay [1] was 0.47 nM; in assay [2] (setting [7]), 0.17 nM; in assay [2] (setting [8]), 0.17 nM; in assay [3], 0.38 nM; in assay [4], 3.1 nM; in assay [6], 0.6 nM. Also, the “Ratio of Bcl-2 D103Y/Bcl-2 WT” value in assay [3] is reported as 2.2. For the same compound, the “Ratio of Bcl-2 G101V/WT” value in assay [5] worked out at 3.5.
